PMC11816618, “Pharmacokinetic profile and in vivo anticancer efficacy of anagrelide administered subcutaneously in rodents” (Drug Delivery, 2025)
Where two headings read alike, the source gives them in different places.

Test: PK comparison between three administration routes (IV, PO, SC), plasma LC-MS/MS
Assay type: in vivo, Sprague-Dawley rats
Conditions: for Vd/F: read-out: Vz/F
Method: The rats were purchased from SPF Biotechnology Co. Ltd. (Beijing, China). Animals were acclimated to the test facility for at least three days, during which their general health was checked by veterinary staff or other authorized personnel. Animals were kept in polycarbonate cages containing absorbent corncob bedding, with a maintained temperature range of +20-25 °C and a 12-h light/dark cycle. Animals had access to food and drinking water ad libitum during acclimation and the experiment. At the end of the study, the rats were euthanized by exposure to an increasing concentration of CO2. […] The SC formulation was prepared by dissolving micronized ANA (5 μm particle size) in an oily triglyceride ester of saturated caprylic and capric fatty acids and glycerol (Miglyol® 810 N, IOI Oleo GmbH, Hamburg, Germany). […] To evaluate plasma concentration-time profiles, blood samples were collected from the jugular vein in EDTA tubes and stored at -70 °C until further analysis. […] In the second PK analysis in rats with a longer follow-up time, blood samples were collected at 0, 30 min, 1 […], and 56 d after dosage. SD rat plasma was analyzed for ANA, 3-OH-ANA, and RL603 concentrations by Pharmaron (Beijing, China). ANA, 3-hydroxy-anagrelide (CAS No. 733043-41-9, Cat. No. sc-206647, Santa Cruz Biotechnology, Inc., Dallas, TX), and RL603 (CAS No. 327602-34-6, Cat. No. sc-391661, Santa Cruz Biotechnology, Inc., Dallas, TX) were used as reference items in calibration standards and quality control (QC) samples. The HPLC and the MS/MS (LCMS-8060) instruments were both from SHIMADZU (Kyoto, Japan), and the column used was a Raptor Biphenyl column (2.7 μm, 50 × 2.1 mm, Restek, Bellefonte, PA). The desired serial concentrations of working solutions were achieved by diluting analyte stock solution with 50% acetonitrile in water. […] These QC samples were prepared on the day of analysis in the same way as calibration standards. Carbamazepine (CAS No. 298-46-4, Sigma-Aldrich, St. Louis, MO) was used as an internal standard for all analytes. Altogether, 55 μL of standards, 55 μL of QC samples, and 55 μL of test samples (comprising 50 μL of plasma and 5 μL of blank solution) were added to 200 μL of acetonitrile containing an internal standard mixture to precipitate protein. The samples were then vortexed for 30 seconds. After centrifugation at 4000 × g (+4 °C) for 5 min, the supernatant was diluted threefold with water, and 2 μL of the diluted supernatant was injected into the LC/MS/MS system for quantitative analysis. The transitions were 256.00-198.90 m/z for anagrelide hydrochloride, 272.00-198.95 m/z for 3-hydroxy anagrelide, 216.00-198.95 m/z for RL603, and 237.20-194.10 m/z for carbamazepine. […] Plasma drug concentration-time profiles were drawn by the average plasma concentrations at specific time points using Microsoft Excel (Redmond, WA). […] Certara, Princeton, NJ) software. Averages of each variable were used when PK values were compared.

[1] = SC 1.0 mg/kg vs IV 0.5 mg/kg, SD rats
[2] = Sprague-Dawley, rat, plasma, single ANA dose 0.5 mg/kg IV, male SD rats, n = 3, mean ± SD
[3] = Sprague-Dawley, rat, plasma, single ANA dose 1.0 mg/kg SC in miglyol, male SD rats, n = 5, mean ± SD
[4] = Sprague-Dawley, rat, plasma, single ANA dose 2.5 mg/kg PO, male SD rats, n = 3, mean ± SD
[5] = Sprague-Dawley, rat, analyte in plasma after single ANA dose 0.5 mg/kg IV, male SD rats, n = 3, mean ± SD
[6] = Sprague-Dawley, rat, analyte in plasma after single ANA dose 1.0 mg/kg SC in miglyol, male SD rats, n = 5, mean ± SD
[7] = Sprague-Dawley, rat, analyte in plasma after single ANA dose 2.5 mg/kg PO, male SD rats, n = 3, mean ± SD

For `O=C1CN2Cc3c(ccc(Cl)c3Cl)N=C2N1` [Anagrelide, imidazo‐[2,1‐b] quinazolin‐2[3H]‐one, 6,7‐dichloro‐1,5‐dihydro, monohydro‐chloride], the “AUClast lower with SC than with IV” value [1] was 36%, the “increase of T1/2 with SC administration compared to IV” value [1] was 25 fold and the MRT inf [2] was 0.51 ± 0.08 h. It also gave a clearance [2] of 31.9 ± 2.52 mL/min/kg, a Vd (Sprague-Dawley, rat, plasma, single ANA dose 0.5 mg/kg IV, male SD rats, n = 3, mean ± SD, read-out: Vss) of 0.97 ± 0.1 L/kg and a CL/F [3] of 101 ± 37.4 mL/min/kg. It also gave an MRT inf [3] of 48.1 ± 22.7 h, a bioavailability [3] of 33.5 ± 9.79% and a Vd/F [3] of 218 ± 149 L/kg. The CL/F [4] was 718 ± 125 mL/min/kg, the MRT inf [4] was 6.38 ± 1.33 h and the bioavailability [4] was 4.19 ± 0.7%. For the same compound, the Vd/F [4] was 634 ± 338 L/kg, the AUC(0-inf) [5] was 262 ± 19.9 ng·h/mL and the AUC(0-t) [5] was 261 ± 19.8 ng·h/mL. It also gave a Cmax [5] of 497 ± 17.5 ng/mL, a half-life [5] of 1.09 ± 0.22 h and an AUC(0-inf) [6] of 187 ± 62 ng·h/mL. The AUC(0-t) [6] was 167 ± 57.1 ng·h/mL, the Cmax [6] was 12.4 ± 3.14 ng/mL and the half-life [6] was 27.3 ± 24.4 h. It also gave an AUC(0-inf) [7] of 59.3 ± 9.49 ng·h/mL, an AUC(0-t) [7] of 51.4 ± 7.09 ng·h/mL and a Cmax [7] of 18 ± 2.59 ng/mL. For the same compound, the half-life [7] was 10.1 ± 4.93 h, the “time to compound elimination from plasma” value (after IV 0.5 mg/kg, SD rats) was at most 6 h and the “decrease of plasma concentrations by the 8-h time point” value (after PO 2.5 mg/kg, SD rats) was “approximately 90%”. The “time point after which plasma concentrations were no longer detectable” value (after SC 1.0 mg/kg, SD rats, except a few irregular observations near the quantification limit) was 72 h, the Tmax (analyte in plasma after single ANA dose 1.0 mg/kg SC in miglyol, male SD rats, n = 5, mean ± SD, 1 mg/kg) was 0.80 ± 0.27 h and the Tmax (male, Sprague-Dawley, rat, plasma, iv, 0.5 mg/kg, analyte in plasma after single ANA dose 0.5 mg/kg IV, male SD rats, n = 3, mean ± SD, read-out: Tmax) was 0.083 h. The Tmax (male, Sprague-Dawley, rat, plasma, po, 2.5 mg/kg, analyte in plasma after single ANA dose 2.5 mg/kg PO, male SD rats, n = 3, mean ± SD, read-out: Tmax) was 1 h and the Tmax (male, Sprague-Dawley, rat, plasma, sc, 1 mg/kg, analyte in plasma after single ANA dose 1.0 mg/kg SC in miglyol, male SD rats, n = 5, mean ± SD, read-out: Tmax) was 1 h.
